Source: the supplement of paper PMC8617591

How the values were obtained:
[1] = system: Mycobacterium tuberculosis Erdman (autoluminescent); assay: Einf, fitted maximum growth inhibition of three-drug combination (fraction); higher = stronger maximal inhibition
Experimental: (§1)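 DiaMOND equipotent three-drug combination dose responses (10 doses, 1.5- or 2-fold spacing, centred on IC90) against autoluminescent M. tuberculosis Erdman in 8 in vitro models. Read-out is OD600, or luminescence for the intracellular and dormancy models, normalised to untreated wells. Hill-fit Einf, AUC25 and GRinf are potency metrics; FIC50 and FIC90 are total Loewe fractional inhibitory concentrations as log2 (negative = synergy).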

[2] = system: Mycobacterium tuberculosis Erdman (autoluminescent); assay: AUC25, normalised area under dose response up to IC25 (three-drug combination) (fraction (0-1)); higher = more potent at low dose
Experimental: as §1

[3] = system: Mycobacterium tuberculosis Erdman (autoluminescent); assay: total FIC90 (Loewe) at 90% inhibition, three-drug combination (log2); higher = more antagonistic
Experimental: as §1

[4] = system: Mycobacterium tuberculosis Erdman (autoluminescent); assay: total FIC50 (Loewe) at 50% inhibition, three-drug combination (log2); higher = more antagonistic
Experimental: as §1

[5] = system: Mycobacterium tuberculosis Erdman (autoluminescent); assay: GRinf, maximum normalised growth rate inhibition (three-drug combination) (unitless (-1 to 1)); higher = less effect (negative = killing)
Experimental: as §1

NNC(=O)c1ccncc1 [isoniazid] + CC(=O)NC[C@H]1CN(c2ccc(N3CCOCC3)c(F)c2)C(=O)O1 [linezolid] + CO[C@H]1/C=C/O[C@@]2(C)Oc3c(C)c(O)c4c(O)c(c(/C=N/N5CCN(C6CCCC6)CC5)c(O)c4c3C2=O)NC(=O)/C(C)=C\C=C\[C@H](C)[C@H](O)[C@@H](C)[C@@H](O)[C@@H](C)[C@H](OC(C)=O)[C@@H]1C [rifapentine]
Conditions | AUC25, [2] | Einf, [1] | GRinf, [5] | total FIC50, [4] | total FIC90, [3]
in vitro model: acidic pH 5.7, time point: constant (~7 days, model-specific) | 0.0908 | 0.853 | -0.0954 | 0.653 | –
in vitro model: acidic pH 5.7, time point: terminal (~4-5 doublings, model-specific) | 0.0757 | 0.977 | -0.138 | 0.526 | 0.636
in vitro model: intracellular J774, time point: constant = terminal | – | 0.946 | -0.138 | – | 0.00443

Conditions | AUC25, [2] | Einf, [1] | GRinf, [5] | total FIC50, [4] | total FIC90, [3]
in vitro model: butyrate, time point: constant (~7 days, model-specific) | 0.0823 | 0.894 | 0.1 | 0.461 | 1.07
in vitro model: butyrate, time point: terminal (~4-5 doublings, model-specific) | 0.0501 | 0.94 | 0.0909 | 0.377 | 0.0682
in vitro model: cholesterol 0.05 mM, time point: constant (~7 days, model-specific) | 0.153 | 0.735 | -0.233 | 0.774 | –
in vitro model: cholesterol 0.05 mM, time point: terminal (~4-5 doublings, model-specific) | 0.125 | 0.921 | -0.273 | 0.542 | 0.792
in vitro model: cholesterol-high 0.2 mM, time point: constant (~7 days, model-specific) | 0.0853 | 0.833 | -0.0945 | 0.52 | –
in vitro model: cholesterol-high 0.2 mM, time point: terminal (~4-5 doublings, model-specific) | 0.093 | 1 | -0.883 | 0.739 | 0.834
in vitro model: dormancy (butyrate + nitrate, low O2), time point: constant (~7 days, model-specific) | 0.0503 | 0.879 | 0.222 | 1.15 | 0.705
in vitro model: dormancy (butyrate + nitrate, low O2), time point: terminal (~4-5 doublings, model-specific) | 0.0276 | 0.984 | -0.167 | 0.72 | 0.385
in vitro model: standard 7H9 glycerol, time point: constant = terminal | 0.0681 | 0.902 | 0.155 | 0.53 | 1.15
in vitro model: valerate, time point: constant (~7 days, model-specific) | 0.0749 | 0.839 | 0.0814 | 0.038 | –
in vitro model: valerate, time point: terminal (~4-5 doublings, model-specific) | 0.0444 | 0.931 | 0.0271 | 0.299 | 0.267

NNC(=O)c1ccncc1 [isoniazid] + CC(=O)NC[C@H]1CN(c2ccc(N3CCOCC3)c(F)c2)C(=O)O1 [linezolid] + CO[C@H]1/C=C/O[C@@]2(C)Oc3c(C)c(O)c4c(O)c(c(/C=N/N5CCN(C)CC5)c(O)c4c3C2=O)NC(=O)/C(C)=C\C=C\[C@H](C)[C@H](O)[C@@H](C)[C@@H](O)[C@@H](C)[C@H](OC(C)=O)[C@@H]1C [rifampicin]
Conditions | AUC25, [2] | Einf, [1] | GRinf, [5] | total FIC50, [4] | total FIC90, [3]
in vitro model: acidic pH 5.7, time point: constant (~7 days, model-specific) | 0.073 | 0.841 | -0.0845 | 0.571 | –
in vitro model: acidic pH 5.7, time point: terminal (~4-5 doublings, model-specific) | 0.0682 | 0.972 | -0.116 | 0.505 | 0.335
in vitro model: intracellular J774, time point: constant = terminal | – | 0.947 | -0.188 | – | -0.141

Conditions | AUC25, [2] | Einf, [1] | GRinf, [5] | total FIC50, [4] | total FIC90, [3]
in vitro model: butyrate, time point: constant (~7 days, model-specific) | 0.0943 | 0.915 | 0.0298 | 0.353 | 0.315
in vitro model: butyrate, time point: terminal (~4-5 doublings, model-specific) | 0.0727 | 0.958 | 0.0122 | 0.184 | 0.0301
in vitro model: cholesterol 0.05 mM, time point: constant (~7 days, model-specific) | 0.139 | 0.691 | -0.14 | 0.356 | –
in vitro model: cholesterol 0.05 mM, time point: terminal (~4-5 doublings, model-specific) | 0.135 | 0.916 | -0.324 | 4.8 | -0.269
in vitro model: cholesterol-high 0.2 mM, time point: constant (~7 days, model-specific) | 0.11 | 0.956 | -0.355 | 0.569 | –
in vitro model: cholesterol-high 0.2 mM, time point: terminal (~4-5 doublings, model-specific) | 0.0902 | 0.997 | -0.919 | 0.831 | 0.809
in vitro model: dormancy (butyrate + nitrate, low O2), time point: constant (~7 days, model-specific) | 0.0701 | 0.891 | 0.192 | 0.857 | 0.12
in vitro model: dormancy (butyrate + nitrate, low O2), time point: terminal (~4-5 doublings, model-specific) | 0.036 | 0.978 | -0.111 | 0.231 | 0.0283
in vitro model: standard 7H9 glycerol, time point: constant = terminal | 0.0756 | 0.899 | 0.148 | 0.299 | -0.589
in vitro model: valerate, time point: constant (~7 days, model-specific) | 0.0594 | 0.862 | 0.0129 | 0.491 | –
in vitro model: valerate, time point: terminal (~4-5 doublings, model-specific) | 0.035 | 0.934 | 0.0126 | 0.502 | 0.221

NNC(=O)c1ccncc1 [isoniazid] + CC(=O)NC[C@H]1CN(c2ccc(N3CCOCC3)c(F)c2)C(=O)O1 [linezolid] + COc1c(N2C[C@@H]3CCCN[C@@H]3C2)c(F)cc2c(=O)c(C(=O)O)cn(C3CC3)c12 [moxifloxacin]
Conditions | AUC25, [2] | Einf, [1] | GRinf, [5] | total FIC50, [4] | total FIC90, [3]
in vitro model: acidic pH 5.7, time point: constant (~7 days, model-specific) | 0.109 | 0.747 | -0.275 | 0.122 | –
in vitro model: acidic pH 5.7, time point: terminal (~4-5 doublings, model-specific) | 0.0728 | 0.923 | -0.258 | 1.49 | 0.715
in vitro model: intracellular J774, time point: constant = terminal | – | 0.893 | -0.0263 | – | 0.67

Conditions | AUC25, [2] | Einf, [1] | GRinf, [5] | total FIC50, [4] | total FIC90, [3]
in vitro model: butyrate, time point: constant (~7 days, model-specific) | 0.086 | 0.917 | 0.00606 | 0.711 | 0.963
in vitro model: butyrate, time point: terminal (~4-5 doublings, model-specific) | 0.0553 | 0.956 | 0.0163 | 0.753 | 0.721
in vitro model: cholesterol 0.05 mM, time point: constant (~7 days, model-specific) | 0.149 | 0.654 | -0.302 | 0.796 | –
in vitro model: cholesterol 0.05 mM, time point: terminal (~4-5 doublings, model-specific) | 0.15 | 0.909 | -0.444 | 4.95 | 0.24
in vitro model: cholesterol-high 0.2 mM, time point: constant (~7 days, model-specific) | 0.114 | 0.933 | -0.214 | 0.427 | 1.53
in vitro model: cholesterol-high 0.2 mM, time point: terminal (~4-5 doublings, model-specific) | 0.105 | 1 | -0.842 | 0.413 | 0.848
in vitro model: dormancy (butyrate + nitrate, low O2), time point: constant (~7 days, model-specific) | 0.0474 | 0.851 | 0.271 | 1.12 | 0.548
in vitro model: dormancy (butyrate + nitrate, low O2), time point: terminal (~4-5 doublings, model-specific) | 0.0316 | 0.974 | -0.0773 | 1 | 0.562
in vitro model: standard 7H9 glycerol, time point: constant = terminal | 0.0712 | 0.97 | -0.21 | 0.644 | 0.854
in vitro model: valerate, time point: constant (~7 days, model-specific) | 0.104 | 0.888 | -0.0253 | 0.337 | –
in vitro model: valerate, time point: terminal (~4-5 doublings, model-specific) | 0.0614 | 0.935 | -0.00928 | 0.575 | 0.805
